Measured values taken from patent publication US11833229B2, “Labeling precursors with squaric acid coupling” (SCV—SpezialChemikalienVertrieb GmbH, priority 2019, dated 2023).
“And” between values parts separate entries of the source, which are not always exact repeats. Equal values may be shown once. Read-outs that look alike come from different tables or passages of the source. One block for each molecule: values may come before it.

Tests used:
[1] = molecular target: T1, FAP (Homo sapiens, UniProt Q12884); assay: FAP IC50 using Z-Gly-Pro-7-amino-4-methylcoumarin (AMC); type: biochemical; conditions: for Selectivity index (FAP/PREP): from IC50 FAP and IC50 PREP; for IC50: substrate Z-Gly-Pro-AMC
T1 sequence (Q12884 1-760): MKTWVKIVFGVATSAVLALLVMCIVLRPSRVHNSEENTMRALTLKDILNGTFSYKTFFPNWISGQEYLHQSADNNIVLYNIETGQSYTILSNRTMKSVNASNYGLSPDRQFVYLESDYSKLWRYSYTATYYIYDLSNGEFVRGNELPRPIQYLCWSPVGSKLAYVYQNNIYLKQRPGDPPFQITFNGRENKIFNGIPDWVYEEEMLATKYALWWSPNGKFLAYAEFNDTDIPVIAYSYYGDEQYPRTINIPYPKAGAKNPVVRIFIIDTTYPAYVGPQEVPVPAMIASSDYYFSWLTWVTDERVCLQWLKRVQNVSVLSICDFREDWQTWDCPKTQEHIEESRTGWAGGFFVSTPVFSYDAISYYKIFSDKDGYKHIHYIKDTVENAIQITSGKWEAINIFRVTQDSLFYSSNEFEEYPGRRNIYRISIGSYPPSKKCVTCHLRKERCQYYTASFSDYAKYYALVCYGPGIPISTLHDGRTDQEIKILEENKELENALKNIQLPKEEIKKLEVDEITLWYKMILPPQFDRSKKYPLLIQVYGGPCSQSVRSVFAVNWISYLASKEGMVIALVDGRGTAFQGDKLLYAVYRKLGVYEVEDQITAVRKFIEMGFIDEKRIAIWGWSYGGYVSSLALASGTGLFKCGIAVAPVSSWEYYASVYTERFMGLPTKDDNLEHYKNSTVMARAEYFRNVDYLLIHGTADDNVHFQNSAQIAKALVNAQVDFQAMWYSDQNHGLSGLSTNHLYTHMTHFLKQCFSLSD
Description: (§1) The FAP IC50 values were measured using Z-Gly-Pro-7-amino-4-methylcoumarin (AMC). The PREP IC50 values were determined using N-succinyl-Gly-Pro-AMC.

[2] = molecular target: T2, PREP (Homo sapiens, UniProt P48147); assay: PREP IC50 using N-succinyl-Gly-Pro-AMC; type: biochemical; conditions: substrate N-succinyl-Gly-Pro-AMC
T2 sequence (P48147 1-710): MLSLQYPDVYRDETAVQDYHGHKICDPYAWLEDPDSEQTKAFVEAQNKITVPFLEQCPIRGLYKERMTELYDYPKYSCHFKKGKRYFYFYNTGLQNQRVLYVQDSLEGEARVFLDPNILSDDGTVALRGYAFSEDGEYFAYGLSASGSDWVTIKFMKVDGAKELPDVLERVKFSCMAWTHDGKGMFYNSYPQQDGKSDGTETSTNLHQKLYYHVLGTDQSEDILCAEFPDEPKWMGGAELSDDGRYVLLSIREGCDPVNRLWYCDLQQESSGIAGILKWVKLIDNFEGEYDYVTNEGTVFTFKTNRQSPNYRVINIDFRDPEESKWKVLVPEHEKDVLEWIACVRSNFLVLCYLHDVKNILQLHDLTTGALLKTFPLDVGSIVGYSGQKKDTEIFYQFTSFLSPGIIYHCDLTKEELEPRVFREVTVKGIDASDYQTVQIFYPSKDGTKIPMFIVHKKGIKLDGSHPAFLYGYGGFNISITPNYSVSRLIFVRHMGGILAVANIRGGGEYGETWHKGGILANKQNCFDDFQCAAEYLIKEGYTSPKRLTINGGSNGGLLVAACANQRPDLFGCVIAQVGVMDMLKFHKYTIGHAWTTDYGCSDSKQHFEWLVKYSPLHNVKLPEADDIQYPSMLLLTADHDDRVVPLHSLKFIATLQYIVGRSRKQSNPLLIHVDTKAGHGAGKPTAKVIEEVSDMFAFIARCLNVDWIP
Description: as §1

[3] = system: LNCap cells; assay: In vitro IC50 of unlabeled compounds with LNCap cells; type: cell-based
Description: Further compounds according to the invention are those of the DATA.QS.PSMA type, the structure of which corresponds to the other compounds listed, with the DATA chelator enabling simpler and milder labeling. In the synthesis shown in FIG. 37, a yield of about 70% is achieved. In the case of radioactive labeling with ^68Ga, a yield of more than 95% is achieved (FIG. 38).

[4] = system: LNCaP tumor; assay: PET preclinical comparative tests of PSMA radiotracers (SUV); conditions: 68Ga-labeled tracer; for SUV Nieren: kidneys (Nieren); for SUV Leber: liver (Leber)
[5] = system: LNCaP tumor; conditions: NMRI nu/nu nude, mouse, in vivo
[6] = system: tumor tissue; assay: In vivo and ex vivo investigation of TRAP.QS.PSMA radiotracer; conditions: ex vivo, compared to [68Ga]Ga-PSMA-11
Description: FIG. 31a-b, 32-36 show the synthesis and measurement results for radiolabeling, stability and in vivo investigations of the radiotracer [^68Ga]Ga-TRAP.QS.PSMA. […] The in vivo studies were carried out with ^68Ga and ^64Cu. From the images it can be seen that, compared to Examples 8 and 10, the accumulation in the kidneys is […] for both radiotracers.

[7] = system: LNCaP tumor; assay: Biological distribution by extraction of organs (ex vivo), PSMA tracers; type: in vivo, NMRInu/nu nude mice; conditions: for tumor activity (biological distribution): compared with 68Ga-PSMA-11 and 68Ga-PSMA-617
Description: In addition, PET was used to carry out preclinical ex vivo tests with the radiotracers of type [^68Ga]Ga-DOTA.QS.PSMA, [^68Ga]Ga-PSMA-11 and [^68Ga] Ga-PSMA-617 on NMRInu/nu nude mice with an LNCap tumor. […] The results obtained underline those obtained in the in vivo tests.

[8] = PET scans of bone tracers in young healthy rats; type: in vivo, Wistar rats
Description: The tracer NOTA.QS.PAM according to the invention and the clinically established reference tracer DOTA^Zol were labeled with ^68Ga, injected into young healthy Wistar rats, followed by recording of PET scans at intervals of 5 min, 60 min and 120 min after injection.
Both tracers are characterized by renal excretion and low retention in the remaining tissue.

[9] = system: tumor; assay: Ex vivo activities of 68Ga-DATA.QS.PSMA and 68Ga-PSMA-11; type: in vivo; conditions: ± SD
Description: The results of ex vivo investigations (FIGS. 41-43) are in agreement with the in vivo observations.

[10] = system: tumor; assay: In vivo PET comparison of DATA.QS.PSMA with PSMA-11 (MIP, time/activity curves)
Description: Furthermore, compounds of the type DATA.QS.PSMA were compared in vivo with PSMA-11 in the same animal model.

Structure (SMILES): CN(CC(=O)O)C1(CCCCC(=O)NCCNc2c(NCCCCOc3ccc4nccc(C(=O)NCC(=O)N5CC(F)(F)C[C@H]5C#N)c4c3)c(=O)c2=O)CN(CC(=O)O)CCN(CC(=O)O)C1.[Ga+3] [DATA5m.QS.FAPi - natGa]
- Selectivity index (FAP/PREP) [1]: 6714
- IC50 [1]: 0.7 ± 0.1 nM
- IC50 [2]: 4700 ± 300 nM

Structure (SMILES): CN(CC(=O)O)C1(CCCCC(=O)NCCNc2c(NCCCCC(NC(=O)NC(CCC(=O)O)C(=O)O)C(=O)O)c(=O)c2=O)CN(CC(=O)O)CCN(CC(=O)O)C1 (stereo not drawn) [DATA.QS.PSMA]
- IC50 [3]: 51.5 nM and 51.1 nM

Structure (SMILES): CN(CC(=O)O)C1(CCCCC(=O)NCCNc2c(NCCCCOc3ccc4nccc(C(=O)NCC(=O)N5CC(F)(F)C[C@H]5C#N)c4c3)c(=O)c2=O)CN(CC(=O)O)CCN(CC(=O)O)C1 [DATA^5m.QS.FAPi - uncomplexed]
- Selectivity index (FAP/PREP) [1]: 2113
- IC50 [1]: 0.8 ± 0.2 nM
- IC50 [2]: 1690 ± 90 nM

Structure (SMILES): N#C[C@@H]1CC(F)(F)CN1C(=O)CNC(=O)c1ccnc2ccc(OCCCCNc3c(NCCNC(=O)CN4CCN(CC(=O)O)CCN(CC(=O)O)CCN(CC(=O)O)CC4)c(=O)c3=O)cc12 [DOTA.QS.FAPi - uncomplexed]
- Selectivity index (FAP/PREP) [1]: 6000
- IC50 [1]: 0.9 ± 0.1 nM
- IC50 [2]: 5400 ± 300 nM

Structure (SMILES): O=C(O)CCc1ccc(O)c(CN(CCN(CC(=O)O)Cc2cc(CCC(=O)NCCCCCC(=O)NCCCC[C@H](NC(=O)N[C@@H](CCC(=O)O)C(=O)O)C(=O)O)ccc2O)CC(=O)O)c1 [PSMA-11, reference compound]
- SUV Nieren [4]: 4.71
- SUV Leber [4]: 0.25
- SUV Tumor [4]: 1.16

Structure (SMILES): O=C(O)CC[C@H](NC(=O)N[C@@H](CCCCNC(=O)[C@H](Cc1ccc2ccccc2c1)NC(=O)[C@H]1CC[C@H](CNC(=O)CN2CCN(CC(=O)O)CCN(CC(=O)O)CCN(CC(=O)O)CC2)CC1)C(=O)O)C(=O)O [PSMA-617]
- SUV Leber [5]: 0.29
- SUV Nieren [5]: 0.27
- SUV Tumor [5]: 0.73
- IC50 ([3]; Homo sapiens): 15.1 nM

Structure (SMILES): O=C(O)CCC(NC(=O)NC(CCCCNc1c(NCCCOCCOCCOCCCNC(=O)CCP(=O)(O)CN2CCN(CP(=O)(O)CCC(=O)NCCCOCCOCCOCCCNc3c(NCCCCC(NC(=O)NC(CCC(=O)O)C(=O)O)C(=O)O)c(=O)c3=O)CCN(CP(=O)(O)CCC(=O)NCCCOCCOCCOCCCNc3c(NCCCCC(NC(=O)NC(CCC(=O)O)C(=O)O)C(=O)O)c(=O)c3=O)CC2)c(=O)c1=O)C(=O)O)C(=O)O.[68Ga+3] (stereo not drawn) [[^68Ga]Ga-TRAP.QS.PSMA]
- accumulation in the kidneys [6]: noticeably decreased
- accumulation in tumor tissue [6]: elevated

Structure (SMILES): O=C([O-])CN(CCN(CC(=O)[O-])Cc1cc(CCC(=O)NCCCCCC(=O)NCCCC[C@H](NC(=O)N[C@@H](CCC(=O)O)C(=O)O)C(=O)O)ccc1[O-])Cc1cc(CCC(=O)O)ccc1[O-].[68Ga+3].[OH3+] [^68Ga.PSMA 11, reference compound]
- Ex vivo activity LN [9]: 0.66 ± 0.10 % ID/g
- Ex vivo activity blood [9]: 0.27 ± 0.03 % ID/g
- Ex vivo activity bone [9]: 0.15 ± 0.04 % ID/g
- Ex vivo activity heart [9]: 0.17 ± 0.03 % ID/g
- Ex vivo activity kidney left [9]: 36.66 ± 5.05 % ID/g
- Ex vivo activity kidney right [9]: 36.72 ± 4.33 % ID/g
- Ex vivo activity liver [9]: 0.23 ± 0.04 % ID/g
- Ex vivo activity lung [9]: 0.74 ± 0.04 % ID/g
- Ex vivo activity muscle [9]: 0.11 ± 0.03 % ID/g
- Ex vivo activity salivary glands [9]: 0.54 ± 0.11 % ID/g
- Ex vivo activity small intestine [9]: 0.50 ± 0.14 % ID/g
- Ex vivo activity spleen [9]: 3.12 ± 0.39 % ID/g
- Ex vivo activity tumor [9]: 5.51 ± 0.38 % ID/g

Continued, values first:

- SUV Nieren [4]: 0.43
- SUV Leber [4]: 0.27
- SUV Tumor [4]: 0.73
Structure (SMILES): O=C(O)CCC(NC(=O)NC(CCCCNc1c(NCCNC(=O)CCC(C(=O)O)N2CCN(CC(=O)O)CCN(CC(=O)O)CCN(CC(=O)O)CC2)c(=O)c1=O)C(=O)O)C(=O)O (stereo not drawn) [DOTA.QS.PSMA]

- SUV Tumor [4]: 0.73
- off-target activity in the kidneys ([7]; compared with 68Ga-PSMA-11): significantly lower
- tumor activity (biological distribution) [7]: slightly lower or equal
- tumor activity (biological distribution) ([7]; listed as [^68Ga]Ga-DOTA.QS.PSMA): slightly lower or the same
Structure (SMILES): O=C(O)CCC(NC(=O)NC(CCCCNc1c(NCCNC(=O)CCC(C(=O)O)N2CCN(CC(=O)O)CCN(CC(=O)O)CCN(CC(=O)O)CC2)c(=O)c1=O)C(=O)O)C(=O)O.[68Ga+3] (stereo not drawn) [^68Ga-DOTA.QS.PSMA]

- SUV femur ([8]; 68Ga-labeled, organ distribution, femur): 3.7±0.4
Structure (SMILES): O=C(O)CN1CCN(CC(=O)O)CCN(CC(=O)NCCc2cncn2CC(O)(P(=O)(O)O)P(=O)(O)O)CCN(CC(=O)O)CC1.[68Ga+3] [^68Ga-DOTA^Zol, reference compound]

- SUV femur ([8]; rat, in vivo): 4.5±0.2
- renal excretion ([8]; rat, in vivo): slightly reduced
Structure (SMILES): O=C(O)CN1CCN(CC(=O)O)CCN(C(CCC(=O)NCCNc2c(NCCC(O)(P(=O)(O)O)P(=O)(O)O)c(=O)c2=O)C(=O)O)CC1.[68Ga+3] (stereo not drawn) [^68Ga-NOTA.QS.PAM]

- Ex vivo activity LN [9]: 0.35 ± 0.20 % ID/g
- Ex vivo activity blood [9]: 0.50 ± 0.19 % ID/g
- Ex vivo activity bone [9]: 0.15 ± 0.03 % ID/g
- Ex vivo activity heart [9]: 0.17 ± 0.06 % ID/g
- Ex vivo activity kidney left [9]: 6.59 ± 2.45 % ID/g
- Ex vivo activity kidney right [9]: 6.23 ± 2.39 % ID/g
- Ex vivo activity liver [9]: 0.21 ± 0.04 % ID/g
- Ex vivo activity lung [9]: 0.59 ± 0.27 % ID/g
- Ex vivo activity muscle [9]: 0.09 ± 0.05 % ID/g
- Ex vivo activity salivary glands [9]: 0.19 ± 0.07 % ID/g
- Ex vivo activity small intestine [9]: 0.31 ± 0.12 % ID/g
- Ex vivo activity spleen [9]: 0.54 ± 0.22 % ID/g
- Ex vivo activity tumor [9]: 4.65 ± 0.58 % ID/g
- accumulation in the tumor ([10]; MIP images): high accumulation
- excretion via the kidneys ([10]; first hour, compared with [68Ga]-PSMA-11, time/activity curves): significantly faster
Structure (SMILES): CN(CC(=O)O)C1(CCCCC(=O)NCCNc2c(NCCCCC(NC(=O)NC(CCC(=O)O)C(=O)O)C(=O)O)c(=O)c2=O)CN(CC(=O)O)CCN(CC(=O)O)C1.[68Ga+3] (stereo not drawn) [^68Ga.DATA.QS.PSMA]
